Reference: patent US10774109B2, “Crystal of reduced glutathione and method for producing same” (KYOWA HAKKO BIO CO., LTD., priority 2016, dated 2020)

Columns and labels:
[1] = Crystal thickness by scanning electron microscope; type: physicochemical; conditions: α-type crystal
Excerpt: In this description, when a crystal is ascertained three-dimensionally using a microscope, the longest axis is referred to as “longitudinal axis”, and an axis perpendicular to the longitudinal axis is referred to as “lateral axis” (FIG. 2). Further, the length in the longitudinal axis direction of a crystal, the major axis of the cross section of the lateral axis, and the minor axis of the cross section of the lateral axis are referred to as “crystal length”, “crystal width”, and “crystal thickness”, respectively (see FIG. 2), and the averages thereof are referred to as “average length”, “average width”, and “average thickness”, respectively.
The crystal thickness can be measured, for example, using a scanning electron microscope [JSM-6510 (manufactured by JEOL Ltd.)] at a measurement magnification of 250 to 1000 times. For example, as for 50 crystals, crystals whose longitudinal axis is perpendicular to the scanning electron microscope field of view are selected, and the thickness of each crystal is measured (FIG. 2, right drawing), and the average thickness T is measured. A sample is fixed to an aluminum sample stand with a carbon double-sided tape.

[2] = Loose specific volume (Multi Tester MT-1001T); type: physicochemical; conditions: for Difference in specific volume: loose minus dense specific volume; for Loose specific volume: α-type crystal
Procedure: Here, the “loose specific volume” refers to a value which is obtained by dividing a volume occupied by a powder by a mass when the powder is filled in a container and the mass of the powder is measured.
[Measurement Conditions for Loose Specific Volume]
Vibration width: 0.6 to 0.7 mm

[3] = Dense specific volume (Multi Tester MT-1001T); type: physicochemical; conditions: α-type crystal; 200 taps
Procedure: Here, the “dense specific volume” refers to a value which is obtained by dividing a volume occupied by a powder by a mass when the powder is filled in a container and the mass of the powder is measured, and thereafter a given impact is applied to the container.
[Measurement Conditions for Dense Specific Volume]

[4] = Angle of repose (Multi Tester MT-1001T)
[5] = Angle of rupture (Multi Tester MT-1001T)
[6] = compared with Comparative Example
Excerpt: FIG. 1 illustrates the change in loose specific volume over time when crystals of reduced glutathione obtained in Example 3 and Comparative Example were pulverized. The vertical axis represents the loose specific volume (mL/g), and the horizontal axis represents the pulverization time (min).
The crystal of reduced glutathione of the present invention can be produced by further pulverizing the crystal of reduced glutathione of the present invention obtained by the above-mentioned method. The pulverization of the crystal can be performed, for example, using Osterizer Oster Vintage Blender 16-speed Dual Range (Osterizer OSTER) under the following conditions.
[Conditions for Pulverization of Crystal]
Sample feeding amount: 20 g/feed
The α-type crystals of reduced glutathione obtained in Example 3 and Comparative Example were pulverized, and the change in loose specific volume over time was measured.

| SMILES | Average crystal thickness T [1] | Difference in specific volume [2] | Loose specific volume [2] | Dense specific volume [3] | Angle of repose ([4]; After pulverization) | Angle of repose ([4]; Before pulverization) | Angle of rupture ([5]; After pulverization) | Angle of rupture ([5]; Before pulverization) | loose specific volume during pulverization ([6]; all pulverization times) | pulverization behaviour (speed of pulverization, convergence of specific volume) ([6]; FIG. 1) | flowability ([4]; from Table 3, before and after pulverization) |
| --- | --- | --- | --- | --- | --- | --- | --- | --- | --- | --- | --- |
| N[C@@H](CCC(=O)N[C@@H](CS)C(=O)NCC(=O)O)C(=O)O [Commercially available product A, reduced glutathione] | 1.9 μm | 2.20 mL/g | 4.69 mL/g | 2.49 mL/g | – | – | – | – | – | – | – |
| N[C@@H](CCC(=O)N[C@@H](CS)C(=O)NCC(=O)O)C(=O)O [Commercially available product B, reduced glutathione] | – | 2.61 mL/g | 5.50 mL/g | 2.88 mL/g | – | – | – | – | – | – | – |
| N[C@@H](CCC(=O)N[C@@H](CS)C(=O)NCC(=O)O)C(=O)O [Comparative Example, reduced glutathione] | 5.5 μm | 1.48 mL/g | 3.42 mL/g | 1.95 mL/g | 51.8 ° | 51.4 ° | 41.5 ° | 46.8 ° | – | – | – |
| N[C@@H](CCC(=O)N[C@@H](CS)C(=O)NCC(=O)O)C(=O)O [Example 1, reduced glutathione] | 17.0 μm | 0.62 mL/g | 1.88 mL/g | 1.26 mL/g | – | – | – | – | – | – | – |
| N[C@@H](CCC(=O)N[C@@H](CS)C(=O)NCC(=O)O)C(=O)O [Example 2, reduced glutathione] | 16.7 μm | 0.71 mL/g | 2.00 mL/g | 1.29 mL/g | – | – | – | – | – | – | – |
| N[C@@H](CCC(=O)N[C@@H](CS)C(=O)NCC(=O)O)C(=O)O [Example 3, reduced glutathione] | 16.7 μm | 0.71 mL/g | 2.00 mL/g | 1.29 mL/g | 37.4 ° | 42.4 ° | 31.1 ° | 39.4 ° | smaller | pulverized more promptly | the flowability is high |
